According to US12157746B2, “Tetrahydro-1H-pyrazino[2,1-a]isoindolylquinoline compounds for the treatment of autoimmune disease” (F. HOFFMANN-LA ROCHE AG, priority 2018, dated 2024):
In brackets after ≈: the same amount, converted by molar mass.

Columns and labels:
hERG K+ channel = target: T1, hERG K+ channel (Homo sapiens, UniProt Q12809); assay: hERG channel inhibition assay; type: cell-based; settings: patch-clamp (voltage-clamp, whole-cell); for IC50: CHO cells expressing hERG; for IC20: human, CHO cells stably expressing hERG
T1 construct: expressed in transfected cells; host or cells: CHO (Chinese hamster ovary) cells, CHOhERG
Method: hERG Channel Inhibition Assay
The hERG K^+ channels were cloned in humans and stably expressed in a CHO (Chinese hamster ovary) cell line. CHOhERG cells were used for patch-clamp (voltage-clamp, whole-cell) experiments. Cells were stimulated by a voltage pattern to activate hERG channels and conduct IKhERG currents (rapid delayed outward rectifier potassium current of the hERG channel). After the cells were stabilized for a few minutes, the amplitude and kinetics of IKhERG were recorded at a stimulation frequency of 0.1 Hz (6 bpm). Thereafter, the test compound was added to the preparation at increasing concentrations. For each concentration, an attempt was made to reach a steady-state effect, usually, this was achieved within 3-10 min at which time the next highest concentration was applied. The amplitude and kinetics of IKhERG are recorded in each concentration of the drug which were compared to the control values (taken as 100%). (references: Redfem W S, Carlsson L, Davis A S, Lynch W G, MacKenzie I, Palethorpe S, Siegl P K, Strang I, Sullivan A T, Wallis R, Camm A J, Hammond T G. 2003; Relationships between preclinical cardiac electrophysiology, clinical QT interval prolongation and torsade de pointes for a broad range of drugs: evidence for a provisional safety margin in drug development. Cardiovasc. Res. 58:32-45, Sanguinetti M C, Tristani-Firouzi M. 2006; hERG potassium channels and cardiac arrhythmia. Nature 440:463-469, Webster R, Leishman D, Walker D. 2002; Towards a drug concentration effect relationship for QT prolongation and torsades de pointes. Curr. Opin. Drug Discov. Devel. 5:116-26).

[1] = test system: Balb/c 3T3 mouse fibroblasts; assay: 3T3 in vitro phototoxicity assay; type: cell-based; settings: Neutral Red uptake; for Phototoxicity factor: Factor=IC50(−UV)/IC50(+UV), cut-off factor >5; for IC50: Mus musculus, BALB/c3T3, light or radiation study, with approx. 5 J/cm2 UVA light
From the text: 3T3 In Vitro Phototoxicity Assay
Phototoxicity is defined as a toxic response that is elicited after the first exposure of the skin to certain chemicals and subsequent exposure to light, or that is induced similarly by skin irradiation after systemic administration of a chemical substance. The assay used in this study is designed to detect the phototoxic potential of a chemical by using a simple in vitro cytotoxicity assay with Balb/c 3T3 mouse fibroblasts. The principle of this test is a comparison of the cytotoxicity of a chemical when tested with and without exposure to a non-toxic dose of UVA-light. Cytotoxicity is expressed as a dose dependent reduction of the growth rate of cells as determined by uptake of the vital dye Neutral Red one day after treatment.
A small amount of substance was weighed and formulated freshly in DMSO just before the start of the exposure of the cells. This stock solution or appropriate dilutions with DMSO were added to the cell suspensions to obtain the required final concentrations. All solutions were generally prepared in Eppendorf caps and discarded after use.
For this study the Neutral Red uptake (NRU) assay of Borenfreund and Puemer (Borenfreund, E, Puemer J A. Toxicity determined in vitro by morphological alterations and Neutral Red absorption. Toxicology Lett. 1985; 24:119-124) modified according to INVITTOX protocol No 78 (ERGATT/FRAME data bank of in vitro techniques in toxicology. INVITTOX PROTOCOL No 78. 3T3 NRU Phototoxicity Assay. March 1994) has been adapted to examine a possible phototoxic potential of the test item. This assay is based on the active uptake of the Neutral Red dye into the lysosomes of cultured murine fibroblasts. Because lysosomal membranes are known to be a site of action of many phototoxic compounds, this assay can provide a measure of potential for phototoxic injury.
A murine fibroblasts clone A 31 (ATCC no. CCL 163—passage No. 108) were cultured in 175 cm2 tissue culture grade flasks, containing sDMEM (Dulbecco's Minimal Essential Medium, supplemented with 10% fetal calf serum, 2 mM L-glutamine, 100 units/ml Penicillin and 100 μg/ml streptomycin) at 37° C. in a humidified atmosphere of 6% C02. Before cells approach confluence they were removed from flasks by trypsinisation. Prior to use in an assay, the cells were transferred to 96-well microtiter plates at a concentration of 1×10^4 cells/well in 100 μl volumes of sDMEM and allowed to attach for 24 h.
For incubation with murine fibroblasts, the test item was diluted in PBS/3% DMSO (detailed concentrations see in results).
Culture medium (Dulbecco's Modified Eagle Medium (DMEM), GlutaMAX (Gibco Ref 21885-025), 10% Fetal Bovine Serum (FBS) (Gibco Ref 10270-106), 100 IU/ml Penicillin and 100 μg/ml Streptomycin (Gibco Ref 15140-122)) was removed from the wells and murine fibroblasts were washed with PBS. Afterwards 100 μL of PBS/3% DMSO containing the test item was added and target cells were incubated for 1 h at 37° C. with 6% CO2.
For each test item the microtiter plates were prepared according to Table 4. “UVA plates” were exposed to approx. 5 J/cm2 UVA light, the “Dark plates” were kept in the dark and served as cytotoxicity control. Plates with chlorpromazine hydrochloride served as positive control. UV flux was measured with a UV-meter (Dr. Gröbel RM21).
Following UV irradiation, the test item was removed from the wells (one washing step with PBS) and replaced with sDMEM. Target cells were then incubated overnight at 37° C. in 6% CO2.
Each plate contained wells with cells and solvent but without test item which were either not incubated with Neutral Red solution (0% standard—S1) or were stained with Neutral Red (100% standard—S2) for calculation of the standard cell viability curve. Wells labeled with U01-U08 contained the different test item concentrations.
After the incubation the wells to be assayed were filled with 100 μL of the sDMEM containing Neutral Red. […]

T1 sequence (Q12809 whole entry): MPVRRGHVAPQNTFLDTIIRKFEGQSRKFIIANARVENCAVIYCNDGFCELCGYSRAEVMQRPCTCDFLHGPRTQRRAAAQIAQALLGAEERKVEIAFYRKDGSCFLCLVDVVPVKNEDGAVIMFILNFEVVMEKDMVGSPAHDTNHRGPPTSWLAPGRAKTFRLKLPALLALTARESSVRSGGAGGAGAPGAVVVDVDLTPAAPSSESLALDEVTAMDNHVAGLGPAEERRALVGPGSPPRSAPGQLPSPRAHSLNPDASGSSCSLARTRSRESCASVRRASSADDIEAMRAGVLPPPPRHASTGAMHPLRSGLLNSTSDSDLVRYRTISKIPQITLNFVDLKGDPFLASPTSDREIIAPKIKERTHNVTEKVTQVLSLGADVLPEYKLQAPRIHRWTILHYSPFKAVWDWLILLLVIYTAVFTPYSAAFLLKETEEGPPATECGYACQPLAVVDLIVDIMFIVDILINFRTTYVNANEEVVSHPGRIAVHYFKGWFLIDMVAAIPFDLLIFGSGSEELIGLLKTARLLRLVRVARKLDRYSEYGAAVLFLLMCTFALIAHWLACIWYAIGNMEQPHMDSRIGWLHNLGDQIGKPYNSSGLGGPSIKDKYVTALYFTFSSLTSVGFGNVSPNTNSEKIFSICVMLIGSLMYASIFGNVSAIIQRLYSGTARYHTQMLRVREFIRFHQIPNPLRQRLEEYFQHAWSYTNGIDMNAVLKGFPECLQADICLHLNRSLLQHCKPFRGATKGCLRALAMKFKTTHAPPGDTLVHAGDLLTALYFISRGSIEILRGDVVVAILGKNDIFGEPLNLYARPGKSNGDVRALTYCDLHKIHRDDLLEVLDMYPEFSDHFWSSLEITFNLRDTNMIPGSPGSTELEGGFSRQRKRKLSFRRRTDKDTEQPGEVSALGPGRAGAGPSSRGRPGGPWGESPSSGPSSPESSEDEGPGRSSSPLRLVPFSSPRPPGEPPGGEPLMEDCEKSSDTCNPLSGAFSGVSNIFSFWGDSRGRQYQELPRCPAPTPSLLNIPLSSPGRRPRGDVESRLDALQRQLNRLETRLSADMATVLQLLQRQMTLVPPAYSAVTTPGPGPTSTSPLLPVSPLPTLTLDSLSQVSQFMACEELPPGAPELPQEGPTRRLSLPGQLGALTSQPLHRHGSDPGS

Row | SMILES | IC50 (hERG K+ channel) | IC20 (hERG K+ channel) | Phototoxicity factor [1] | IC50 [1]
1 | C[C@@H]1CN(c2ccc(C#N)c3ncccc23)C[C@@H]2c3ccc(N4CC5CNCC(C4)O5)cc3CN12 [Example 14, 5-[(4R,10bS)-4-methyl-8-(9-oxa-3,7-diazabicyclo[3.3.1]nonan-3-yl)-3,4,6,10b-tetrahydro-1H-pyrazino[2,1-a]isoindol-2-yl]quinoline-8-carbonitrile] | > 20 µM | > 10 µM | 1.00 | > 100 µg/mL
2 | C[C@@H]1CN(c2ccc(C#N)c3ncccc23)C[C@@H]2c3ccc(N[C@H]4CNC[C@H]4F)cc3CN12 [Example 30, 5-[(4R,10bS)-8-[[(3S,4R)-4-fluoropyrrolidin-3-yl]amino]-4-methyl-3,4,6,10b-tetrahydro-1H-pyrazino[2,1-a]isoindol-2-yl]quinoline-8-carbonitrile] | – | – | >1.9 | 54.6 µg/mL (≈ 123 µM)
3 | C[C@@H]1CN(c2ccc(C#N)c3ncccc23)C[C@@H]2c3ccc(N4CC(C)(N)C4)cc3CN12 [Example 39, 5-[(4R,10bS)-8-(3-amino-3-methyl-azetidin-1-yl)-4-methyl-3,4,6,10b-tetrahydro-1H-pyrazino[2,1-a]isoindol-2-yl]quinoline-8-carbonitrile] | > 20 µM | > 10 µM | 1.00 | > 100 µg/mL
4 | C[C@@H]1CN(c2ccc(C#N)c3ncccc23)C[C@@H]2c3ccc(N4CCOCC(N)C4)cc3CN12 (stereo partly drawn) [Example 54, 5-[(4R,10bS)-8-(6-amino-1,4-oxazepan-4-yl)-4-methyl-3,4,6,10b-tetrahydro-1H-pyrazino[2,1-a]isoindol-2-yl]quinoline-8-carbonitrile] | > 20 µM | > 10 µM | – | –
5 | C[C@@H]1CN(c2ccc(C#N)c3ncccc23)C[C@@H]2c3ccc(N4CCOC[C@@H](N)C4)cc3CN12 [Example 54B, 5-[(4R,10bS)-8-[(6S)-6-amino-1,4-oxazepan-4-yl]-4-methyl-3,4,6,10b-tetrahydro-1H-pyrazino[2,1-a]isoindol-2-yl]quinoline-8-carbonitrile] | > 20 µM | > 10 µM | 1.00 | > 100 µg/mL
6 | C[C@@H]1CN(c2ccc(C#N)c3ncccc23)C[C@@H]2c3ccc(NC4CNCCOC4)cc3CN12 (stereo partly drawn) [Example 56, 5-[(4R,10bS)-4-methyl-8-(1,4-oxazepan-6-ylamino)-3,4,6,10b-tetrahydro-1H-pyrazino[2,1-a]isoindol-2-yl]quinoline-8-carbonitrile] | > 20 µM | > 10 µM | – | –
7 | CO[C@@H]1CN(c2ccc3c(c2)CN2[C@H](C)CN(c4ccc(C#N)n5nccc45)C[C@H]32)C[C@H]1N [Example 94, 4-[(4R,10bS)-8-[(3R,4R)-3-amino-4-methoxy-pyrrolidin-1-yl]-4-methyl-3,4,6,10b-tetrahydro-1H-pyrazino[2,1-a]isoindol-2-yl]pyrazolo[1,5-a]pyridine-7-carbonitrile] | > 20 µM | > 10 µM | 1.99 | 39 µg/mL (≈ 87.9 µM)
